How the values were obtained:
[1] = biological target: T1, Peptidyl-prolyl cis-trans isomerase A (Homo sapiens, UniProt P62937); experiment: Inhibition of PPIA (unknown origin) using N-succinyl-Ala-Ala-Pro-Phe-p-nitroanilide as substrate preincubated for 1 hr followed by substrate addition measured for 6 mins by absorbance based assay
[2] = biological target: T1, Peptidyl-prolyl cis-trans isomerase A; experiment: Inhibition of PPIA (unknown origin)
HeLa = experiment: Antiproliferative activity against human HeLa cells assessed as inhibition of cell viability incubated for 48 hrs by CCK8 assay; assay type: functional, cell-based
HCT-116 = experiment: Antiproliferative activity against human HCT-116 cells assessed as inhibition of cell viability incubated for 48 hrs by CCK8 assay; assay type: functional, cell-based; settings: HCT-116, 48 h
MCF7 = experiment: Antiproliferative activity against human MCF7 cells assessed as inhibition of cell viability incubated for 48 hrs by CCK8 assay; assay type: functional, cell-based; settings: MCF7, 48 h
SW480 = experiment: Antiproliferative activity against human SW480 cells assessed as inhibition of cell viability incubated for 48 hrs by CCK8 assay; assay type: functional, cell-based; settings: SW480, 48 h
CT26 = experiment: Antiproliferative activity against mouse CT26 cells assessed as inhibition of cell viability incubated for 48 hrs by CCK8 assay; assay type: functional, cell-based; settings: CT26, 48 h
PANC-1 = experiment: Antiproliferative activity against human PANC-1 cells assessed as inhibition of cell viability incubated for 48 hrs by CCK8 assay; assay type: functional, cell-based; settings: PANC-1, 48 h
HepG2 = experiment: Antiproliferative activity against human HepG2 cells assessed as inhibition of cell viability incubated for 48 hrs by CCK8 assay; assay type: functional, cell-based; settings: HepG2, 48 h
[3] = biological target: T1, Peptidyl-prolyl cis-trans isomerase A; experiment: Binding affinity to PPIA (unknown origin) assessed as dissociation constant
[4] = Toxicity in BALB/c mouse implanted with mouse CT26 cells assessed as change in body weight at 45 mg/kg, ip qd treated for 14 days; assay type: organism-based; settings: in vivo, 336 h, time 14 day
[5] = Toxicity in BALB/c mouse implanted with mouse CT26 cells assessed as histopathological change in heart at 45 mg/kg, ip qd treated for 14 days by H and E staining based analysis; assay type: organism-based; settings: in vivo, 336 h, time 14 day
[6] = Toxicity in BALB/c mouse implanted with mouse CT26 cells assessed as histopathological change in liver at 45 mg/kg, ip qd treated for 14 days by H and E staining based analysis; assay type: organism-based; settings: in vivo, 336 h, time 14 day
[7] = Toxicity in BALB/c mouse implanted with mouse CT26 cells assessed as histopathological change in spleen at 45 mg/kg, ip qd treated for 14 days by H and E staining based analysis; assay type: organism-based; settings: in vivo, 336 h, time 14 day
[8] = Toxicity in BALB/c mouse implanted with mouse CT26 cells assessed as histopathological change in lung at 45 mg/kg, ip qd treated for 14 days by H and E staining based analysis; assay type: organism-based; settings: in vivo, 336 h, time 14 day
[9] = Toxicity in BALB/c mouse implanted with mouse CT26 cells assessed as histopathological change in kidney at 45 mg/kg, ip qd treated for 14 days by H and E staining based analysis; assay type: organism-based; settings: in vivo, 336 h, time 14 day

T1 sequence (P62937 whole entry): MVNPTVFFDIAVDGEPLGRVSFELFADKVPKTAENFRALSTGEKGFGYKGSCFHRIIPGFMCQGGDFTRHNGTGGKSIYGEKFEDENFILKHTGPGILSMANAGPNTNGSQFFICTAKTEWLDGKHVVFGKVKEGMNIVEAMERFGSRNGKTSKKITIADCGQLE

In the case of CC[C@H]1C[C@H](C)[C@@]2(NC1=O)O[C@@H](C[C@H](O)[C@@H](C)CC/C=C/C=C(\C)[C@@H]1C/C=C/C=C/[C@H](O)[C@H](C)[C@@H](O)[C@@H](CCC(C)=O)C(=O)N[C@@H](C(C)C)C(=O)N[C@@H](Cc3cc(O)cc(F)c3)C(=O)N3CCC[C@H](N3)C(=O)O1)[C@H](C)[C@H](O)[C@@H]2C, the IC50 [1] is reported as 0.00049 µM.

With C.CC[C@@H]1NC(=O)[C@H]([C@H](O)[C@H](C)CCCCCCNC(C)=O)N(C)C(=O)[C@H](C(C)C)N(C)C(=O)[C@H](CC(C)C)N(C)C(=O)[C@H](CC(C)C)N(C)C(=O)[C@@H](C)NC(=O)[C@H](C)NC(=O)[C@H](CC(C)C)N(C)C(=O)[C@H](C(C)C)NC(=O)[C@H](CC(C)C)N(C)C(=O)[C@@H](C)N(C)C1=O the Ki [2] was 0.0025 µM.

With CCOC(=O)/C=C/N1c2nc(Cl)nc(Cl)c2N2C(c3cc(OC)c(OC)c(OC)c3)OC(C(=O)OCC)(C(=O)OCC)C12 (racemic) the IC50 (HeLa) was > 50 µM and the IC50 (HCT-116) was 14 µM.

Compound CCOC(=O)/C=C/N1c2nc(Cl)nc(Cl)c2N2C(c3ccc(C)cc3)OC(C(=O)OCC)(C(=O)OCC)C12 (racemic) has an IC50 (HeLa) of 43.7 µM and an IC50 (HCT-116) of 20.7 µM.

Compound CCOC(=O)/C=C/N1c2nc(Cl)nc(Cl)c2N2C(c3cccc(OC)c3)OC(C(=O)OCC)(C(=O)OCC)C12 (racemic) has an IC50 (HeLa) of 45.9 µM and an IC50 (HCT-116) of 20.7 µM.

Work on C=C(C(=O)OC)N1c2nc(Cl)nc(Cl)c2N2C(c3ccccc3Cl)OC(C(=O)OCC)(C(=O)OCC)C12 (racemic) yielded an IC50 (HeLa) of 0.89 µM, an IC50 (HCT-116) of 0.67 µM and an IC50 (MCF7) of 1.9 µM. The IC50 (SW480) was 5.43 µM, the IC50 (CT26) was 1.12 µM and the IC50 (PANC-1) was 4.46 µM. The IC50 (HepG2) was 3.25 µM.

Work on C=C(C(=O)OCC)N1c2nc(Cl)nc(Cl)c2N2C(c3ccccc3F)OC(C(=O)OCC)(C(=O)OCC)C12 (racemic) yielded an IC50 (HeLa) of 0.55 µM and an IC50 (HCT-116) of 0.82 µM.

C=C(C(=O)OCC)N1c2nc(Cl)nc(Cl)c2N2C(c3ccccc3Br)OC(C(=O)OCC)(C(=O)OCC)C12 (racemic) showed an IC50 (HeLa) of 4.78 µM and an IC50 (HCT-116) of 6.16 µM.

C=C(C(=O)OCC)N1c2nc(Cl)nc(Cl)c2N2C(c3ccccc3Cl)OC(C(=O)OCC)(C(=O)OCC)C12 (racemic) showed an IC50 (HeLa) of 2.8 µM and an IC50 (HCT-116) of 2.47 µM.

C=C(C(=O)OC)N1c2nc(Cl)nc(Cl)c2N2C(c3ccccc3Br)OC(C(=O)OCC)(C(=O)OCC)C12 (racemic) gave an IC50 (HeLa) of 2.15 µM, an IC50 (HCT-116) of 3.11 µM and an IC50 (MCF7) of 3.49 µM. It also gave an IC50 (SW480) of 6.99 µM, an IC50 (CT26) of 2.5 µM and an IC50 (PANC-1) of 4.61 µM. The IC50 (HepG2) was 4.87 µM.

Compound CCOC(=O)/C=C/N1c2nc(Cl)nc(Cl)c2N2C(c3cccc(C)c3)OC(C(=O)OCC)(C(=O)OCC)C12 (racemic) has an IC50 (HeLa) of 26.2 µM and an IC50 (HCT-116) of 10.4 µM.

Work on C=C(C(=O)OCC)N1c2nc(Cl)nc(Cl)c2N2C(c3ccccc3)OC(C(=O)OCC)(C(=O)OCC)C12 (racemic) yielded an IC50 (HeLa) of 1.74 µM and an IC50 (HCT-116) of 2.5 µM.

For C=C(C(=O)OC)N1c2nc(Cl)nc(Cl)c2N2C(c3ccccc3)OC(C(=O)OCC)(C(=O)OCC)C12 (racemic), the IC50 (HeLa) was 2.36 µM and the IC50 (HCT-116) was 2.18 µM.

Compound CCOC(=O)/C=C/N1c2nc(Cl)nc(Cl)c2N2C(c3ccc(C)c(C)c3)OC(C(=O)OCC)(C(=O)OCC)C12 (racemic) has an IC50 (HeLa) of 1.92 µM and an IC50 (HCT-116) of 14.9 µM.

With C/C=C/C[C@@H](C)[C@@H](O)[C@H]1C(=O)N[C@@H](CC)C(=O)N(C)[C@H](C)C(=O)N(CC)[C@@H](C(C)C)C(=O)N[C@@H](C(C)C)C(=O)N(C)[C@@H](CC(C)C)C(=O)N[C@@H](C)C(=O)N[C@H](C)C(=O)N(C)[C@@H](CC(C)C)C(=O)N(C)[C@@H](CC(C)C)C(=O)N(C)[C@@H](C(C)C)C(=O)N1C [ALISPORIVIR] the Kd [3] was 0.008 µM.

C/C=C/C[C@@H](C)[C@@H](O)[C@H]1C(=O)N[C@@H](CC)C(=O)N(C)CC(=O)N(C)[C@@H](CC(C)C)C(=O)N[C@@H](C(C)C)C(=O)N(C)[C@@H](CC(C)C)C(=O)N[C@@H](C)C(=O)N[C@H](C)C(=O)N(C)[C@@H](CC(C)C)C(=O)N(C)[C@@H](CC(C)C)C(=O)N(C)[C@@H](C(C)C)C(=O)N1C [CYCLOSPORINE] gave an IC50 (HeLa) of 2.17 µM, an IC50 (MCF7) of 6.12 µM and an IC50 (SW480) of 5.16 µM. It also gave an IC50 (CT26) of 11.4 µM, an IC50 (PANC-1) of 13.3 µM and an IC50 (HepG2) of 12.3 µM.

O=c1[nH]cc(F)c(=O)[nH]1 [FLUOROURACIL] showed an IC50 (HeLa) of 4.48 µM, an IC50 (SW480) of 14.2 µM and an IC50 (CT26) of 3.35 µM. The IC50 (PANC-1) was 14.7 µM, the IC50 (HepG2) was 21.9 µM and the Activity [4] was “Toxic”. For the same compound, the Activity [5] was “Non-toxic”, the Activity [6] was “Non-toxic” and the Activity [7] was “Non-toxic”. For the same compound, the Activity [8] was “Non-toxic” and the Activity [9] was “Non-toxic”.

— ChEMBL document CHEMBL6103618, “Discovery of Novel Oxazolo[4,3-f]purine Derivatives as Antitumor Agents through PPIA Interaction” (J Med Chem, 2025)
